Experimental data taken from US8916681B2, “Compound, use and method” (Medical Research Council, priority 2007, dated 2014).
Non-standard residues stand in square brackets, D forms with d. Residues, ends and D or L forms follow the SMILES beside them.

Biological target: T1, GnRH receptors (Homo sapiens, UniProt P30968)
T1 sequence (P30968 1-328): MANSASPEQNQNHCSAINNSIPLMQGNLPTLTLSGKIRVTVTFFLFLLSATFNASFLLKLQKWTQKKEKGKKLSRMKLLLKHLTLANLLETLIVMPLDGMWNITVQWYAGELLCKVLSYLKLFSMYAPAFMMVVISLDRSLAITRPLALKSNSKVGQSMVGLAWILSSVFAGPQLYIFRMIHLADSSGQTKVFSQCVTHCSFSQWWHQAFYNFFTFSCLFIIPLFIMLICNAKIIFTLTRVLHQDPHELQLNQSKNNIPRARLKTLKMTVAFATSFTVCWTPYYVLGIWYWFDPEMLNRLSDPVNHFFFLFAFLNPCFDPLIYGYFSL
Assay: Binding to GnRH receptors (data not shown)

CC(=O)N[C@H](C)C(=O)N[C@@H](CC(N)=O)C(=O)N[C@@H](Cc1c[nH]c2ccccc12)C(=O)N[C@@H](CC(N)=O)C(=O)NCC(=O)N[C@@H](Cc1ccccc1)C(=O)NCC(=O)N[C@H](Cc1c[nH]c2ccccc12)C(=O)N[C@@H](CCCNC(=N)N)C(=O)N[C@@H](Cc1ccccc1)C(N)=O [Peptide 234] (Ac-[dA]NWNGFG[dW]RF-NH2)
binding to GnRH receptors: did not bind
